# Laboratory results published in US20100222371A1, “PREVENTION OF SURGICAL ADHESIONS” (CHILDREN'S MEDICAL CENTER CORPORATION, priority 2008, published 2010).
# Where “and” joins values, the source holds several entries; their conditions need not be identical. Equal values may be shown once. Entries after “also recorded” stand apart in the source; their conditions may differ.
# How the values were obtained:
# [1] = test system: intra-abdominal adhesion formation; assay: Standard mouse adhesion model (cecal abrasion, silicone patch), Example 2, sacrifice on postoperative day 10 or 30; type: in vivo, C57BLJ6 mice; conditions: for Median cecal: median cecal adhesion score 0-4 (IQR); for Median extent / Median tenacity: median score 0-4 (IQR); for Total score: total median adhesion score 0-12 (IQR); for intra-abdominal adhesion formation compared with control: FIG. 1, FIG. 2; for long-term intra-abdominal adhesion formation compared with control: FIG. 3
# Protocol: Thirty-seven 6- to 8-wk old C57BLJ6 mice (The Jackson Laboratory, Bar Harbor, Me.) were housed in cages of five mice with food and water ad libitum. The mice were acclimated to the facility for at least 72 h prior to surgery. A standard mouse adhesion model was performed as previously described (Chiang S C., et al (2000) J Pediatr Surg 35:189). After the mice were anesthetized with inhaled isoflurane, a midline incision was made, the cecum was eviscerated, rubbed gently with two cotton swabs, and then returned to anatomical position. A silicone patch (5.0×5.0×0.127 mm) (Bentec Medical, Woodland, Calif.) was sutured to the right abdominal wall, lateral to the epigastric vessels, with 7-0 nylon. One day prior to surgery, the mice were randomly treated with sunitinib (40 mg/kg in 100 methylcellulose) or methylcellulose control (100 uL). This dose was selected based on previous studies (Morimoto A M., (2004) Oncogene 23:1618; Takahashi H., et al (2006) J Ocul Pharmacol Ther 22:213; Pietras K., et al (2005) J Clin Ocol 23:939) Both groups were treated daily by orogastric gavage at the same dose for 10 days. On postoperative day 10, the mice were sacrificed and adhesions were scored by an observer who was blinded to the treatment groups, based on a previously described scoring system (Chiang S C., et al (2000), supra). The experiment was then repeated with sacrifice on postoperative day 30. The adhesion score was based on the extent of the patch covered by adhesions, the tenacity of adhesions to the patch, and the strength of cecal adhesions. Each criterion was scored from 0-4 and the sum of the three scores was the final adhesion score. The lowest and highest possible scores were 0 and 12, respectively. The tenacity of the adhesions to the patch was scored: 0=none, 1=adhesions fell apart, 2=lysed with traction, 3=lysed with blunt dissection, 4=lysed with sharp dissection. The extent of the patch covered was scored: 0=0%, 1=<25%, 2=25% to 50%, 3=50% to 75%, 4=>75%. The tenacity of cecal adhesions was scored: 0=none, 1=adhesions fell apart, 2=lysed with traction, 3=lysed with blunt dissection, 4=lysed with sharp dissection. Statistical analysis of adhesion scores was conducted using the Mann-Whitney rank sum test. The conventional 2-tailed P-value of 0.05 was used to establish significance. The results are presented as median adhesion score and interquartile range (IQR: 25th-75th percentile). The statistical program used was SigmaStat (SPSS, Chicago, Ill.).
# adhesions of the uterus = assay: Standard rabbit adhesion procedure (uterine horn abrasion), Example 3; type: in vivo, New Zealand white rabbits; conditions: for Extent of Uterus Covered: median percent involvement score 0-4 (IQR); for Extent of Uterus Covered / Total score / Adhesion Free Rabbits: 10 mg/kg daily for ten days; for Extent of Uterus Covered / Total score: p=0.003; for Total score: median total adhesion score (IQR); for Adhesion Free Rabbits: number of rabbits out of N = 8 surviving
# Protocol: Twenty female New Zealand white rabbits underwent a standard rabbit adhesion procedure. The uterus and its bilateral horns were eviscerated, and abraded with the scalpel until punctate hemorrhages appeared. Collateral blood supply in the right mesosalpinx was tied off with 5-0 silk ties. The uterus was then returned to normal anatomic position. One day prior to surgery, the rabbits were randomly assigned to be treated with sunitinib at a dose of 10 mg/kg or saline control via orogastric gavage. Both groups were treated daily for a total of ten days. On postoperative day ten, the rabbits were sacrificed and their adhesions were scored by two observers who were blinded to their treatments. Adhesions are graded based on their tenacity (0=no adhesions, 1=adhesions fall apart, 2=adhesions lysed by traction, 3=adhesions lysed with blunt dissection, 4=adhesions lysed with sharp dissection) and the percent of uterus involved (0=none, 1=<25%, 2=25-50%, 3=51-75%, 4=>75%).
# adhesion formation = assay: Mouse adhesion model (silicone patch on abdominal wall, cecal abrasion), Example 1; type: in vivo, C57BL/6 mice
# Protocol: Ten 7 week old male C57BL/6 mice were anesthetized with isoflurane and a midline laparotomy was performed. A 5.0 mm×5.0 mm piece of sterile silicone was attached to the right abdominal wall with 7.0 prolene sutures. The cecum then was gently rubbed with 2 cotton swabs to promote adhesion formation.
# Two groups of 5 mice were treated with either 40 mg/kg/day of sunitinib in methylcellulose or methyl cellulose alone beginning the day before the adhesion operation and administered daily for 10 days. After 10 days of treatment, the animals were anesthetized with avertin, sacrificed, and the adhesions were scored.
# The total adhesion score was the sum of the 3 individual scores. A minimum score was 0 and the maximum score was 12. Tenacity was rated as none (0), adhesions fell apart (1), lysed with traction (2), lysed with blunt dissection (3), and lysed with sharp dissection (4). Extent was measured as the percent of the patch covered by adhesion: 0% (0), <25% (1), 25 to 50% (2), 50 to 75% (3), and >75% (4). Cecal adhesions were graded as none (0), adhesions fell apart (1), lysed with traction (2), lysed with blunt dissection (3), and lysed with sharp dissection (4). The differences between the treated and untreated groups were significant (P=0.021).
# [2] = long-term, postoperative day 30, treated 10 d, n = 10, P=0.049
# [3] = long-term, postoperative day 30, treated 10 d, n = 10, P=0.049, listed as sunitinib
# [4] = postoperative day ten, N = 8, 10 mg/kg
# [5] = postoperative day ten, N = 8, listed as Sunitinib + saline, 10 mg/kg
smiles,measurement,setting,value
"CCN(CC)CCNC(=O)c1c(C)[nH]c(/C=C2\C(=O)Nc3ccc(F)cc32)c1C [Sunitinib, sunitinib malate]",Median cecal,"[1]; long-term, postoperative day 30, treated 10 d, n = 10, P=0.225",0 (IQR 0-2.0)
same,Median cecal,"[1]; long-term, postoperative day 30, treated 10 d, n = 10, P=0.225, listed as sunitinib",0.0 (IQR 0-2.0)
same,Median extent,[1]; [2],0 (IQR 0-1.0)
same,Median extent,[1]; [3],0.0 (IQR 0-1.0)
same,Median tenacity,"[1]; long-term, postoperative day 30, treated 10 d from day prior to surgery, n = 10, P=0.011",0 (IQR 0-0.5)
same,Median tenacity,"[1]; long-term, postoperative day 30, treated 10 d from day prior to surgery, n = 10, P=0.011, listed as sunitinib",0.0 (IQR 0.0-0.5)
same,Adhesion free mice,"[1]; long-term, postoperative day 30, number of mice out of n = 10",6
same,mice completely adhesion-free,"[1]; long-term, postoperative day 30, six of 10 mice",60%
same,Total score,[1]; [2],0 (IQR 0-3.0)
same,Total score,[1]; [3],0.0 (IQR 0.0-3.0)
same,intra-abdominal adhesion formation compared with control,"[1]; postoperative day 10, P=0.002",significantly decreased
same,intra-abdominal adhesion formation compared with control,"[1]; postoperative day 10, P=0.002, listed as sunitinib",adhesion free; also recorded: significantly decreased
same,Median cecal,"[1]; postoperative day 10, 40 mg/kg daily gavage for 10 days, n = 18, P=0.002",2.0 (IQR 0-2.0)
same,Median extent,"[1]; postoperative day 10, 40 mg/kg daily gavage for 10 days, n = 18, P vs control 0.091 (Table 3), 0.91, 40 mg/kg",0 (IQR 0-2.0)
same,Median extent,"[1]; postoperative day 10, 40 mg/kg daily gavage for 10 days, n = 18, P vs control 0.091 (Table 3), 0.91, listed as sunitinib, 40 mg/kg",0.0 (IQR 0-2.0)
same,Median tenacity,"[1]; postoperative day 10, 40 mg/kg daily orogastric gavage for 10 days, n = 18, P vs control 0.068 (Table 3), 0.68, 40 mg/kg",0 (IQR 0-1.0)
same,Median tenacity,"[1]; postoperative day 10, 40 mg/kg daily orogastric gavage for 10 days, n = 18, P vs control 0.068 (Table 3), 0.68, listed as sunitinib, 40 mg/kg",0.0 (IQR 0.0-1.0)
same,Adhesion free mice,"[1]; postoperative day 10, number of mice out of n = 18, 40 mg/kg daily for 10 days",6
same,mice completely adhesion-free,"[1]; postoperative day 10, six of 18 mice, 40 mg/kg daily for 10 days",33.3%
same,Total score,"[1]; postoperative day 10, 40 mg/kg daily gavage for 10 days, n = 18, P=0.002, 40 mg/kg",2.0 (IQR 0-5.0)
same,Total score,"[1]; postoperative day 10, 40 mg/kg daily gavage for 10 days, n = 18, P=0.002, listed as sunitinib, 40 mg/kg",2.0 (IQR 0.0-5.0)
same,long-term intra-abdominal adhesion formation compared with control,"[1]; postoperative day 30, P=0.049",significantly decreased
same,long-term intra-abdominal adhesion formation compared with control,"[1]; postoperative day 30, P=0.049, listed as sunitinib",decreased
same,abdominal cavity adhesions in micrograph,"adhesions of the uterus; FIG. 4, treated rabbit",free from abdominal cavity adhesions
same,Extent of Uterus Covered,adhesions of the uterus; [4],1.0 (IQR 0-1.0; range 0-1)
same,Extent of Uterus Covered,adhesions of the uterus; [5],1.0
same,Tenacity to Uterus,"adhesions of the uterus; median score 0-4 (IQR), 10 mg/kg daily orogastric gavage for ten days from day prior to surgery, postoperative day ten, N = 8, p=0.004, listed as Sunitinib + saline, 10 mg/kg",1.0
same,Total score,adhesions of the uterus; [4],2 (IQR 0-2.75; range 0-3)
same,Total score,adhesions of the uterus; [5],2.0
same,Adhesion Free Rabbits,"adhesions of the uterus; postoperative day ten, 10 mg/kg",Three of the eight
same,Adhesion Free Rabbits,"adhesions of the uterus; postoperative day ten, listed as Sunitinib + saline, 10 mg/kg",3
same,adhesion prevention vs vector only control,"adhesion formation; 7 week old male C57BL/6 mice, Table 1 study, P=0.021",significantly prevention adhesion formation
same,comments,"adhesion formation; observation on individual mouse at scoring, 40 mg/kg/day, 10 days",Looked good
same,Tenacity,"adhesion formation; score of individual mouse, 0 (none) to 4 (lysed with sharp dissection), 40 mg/kg/day in methylcellulose, daily for 10 days from day before operation, scored after 10 days, listed as SU11248, 40 mg/kg/day",1 and 0 (3×) and 2
same,Cecal adhesions,"adhesion formation; score of individual mouse, 0 (none) to 4 (lysed with sharp dissection), 40 mg/kg/day, 10 days, listed as SU11248, 40 mg/kg/day",2 (2×) and 0 (2×) and 1
same,Extent,"adhesion formation; score of individual mouse, percent of patch covered: 0% (0), <25% (1), 25 to 50% (2), 50 to 75% (3), >75% (4), 40 mg/kg/day, 10 days, listed as SU11248, 40 mg/kg/day",3 (2×) and 0 (3×)
same,Total,"adhesion formation; total adhesion score of individual mouse, sum of 3 scores, 0-12, 40 mg/kg/day, 10 days, treated vs untreated P=0.021, listed as SU11248, 40 mg/kg/day",6 and 2 and 0 and 1 and 5
